Measurements reported in US10745382B2 (BRISTOL-MYERS SQUIBB COMPANY, priority 2015, dated 2020).
Where two headings read alike, the source gives them in different places.

Target: T1, PD-1/PD-L1 (Homo sapiens, UniProt Q9NZQ7)
T1 construct: made in house; host or cells: HEK293T
Experiment: PD-1/PD-L1 Homogenous Time-Resolved Fluorescence (HTRF) binding assay
Details: PD-L1-His 10 nM, PD-1-Ig 20 nM, read-out: Range or IC50
In short: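 Read-out is time-resolved FRET between europium cryptate-labelled anti-Ig (1 nM final) and APC-labelled anti-His (20 nM final), both dispensed onto the binding mix. Assay buffer: dPBS containing 0.1% bovine serum albumin and 0.05% Tween-20.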

T1 sequence (Q9NZQ7 with tags, fused parts or gaps): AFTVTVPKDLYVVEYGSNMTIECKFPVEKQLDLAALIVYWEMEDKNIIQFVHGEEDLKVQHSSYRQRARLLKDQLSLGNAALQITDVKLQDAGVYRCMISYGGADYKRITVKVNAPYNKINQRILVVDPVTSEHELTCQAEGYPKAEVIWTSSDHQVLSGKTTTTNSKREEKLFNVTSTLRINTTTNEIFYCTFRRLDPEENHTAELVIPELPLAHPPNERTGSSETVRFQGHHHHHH

Row | SMILES | IC50 (value given as range class) [nM] | IC50 (numeric IC50) [nM]
1 | CC(CO)(CO)NCc1cc(Cl)c(OCc2cccc(-c3cccc(OCCCNC[C@H](O)CO)c3Cl)c2Cl)cc1OCc1cccc(C#N)c1 [Example 2060, (S)-3-((4-chloro-5-((2,2′-dichloro-3′-(3-((2,3-dihydroxypropyl)amino)propoxy)-[1,1′-biphenyl]-3-yl)methoxy)-2-(((1,3-dihydroxy-2-methylpropan-2-yl)amino)methyl)phenoxy)methyl)benzonitrile] | 0.21 to 10 | –
2 | Cc1c(COc2cc(OCc3cncc(C#N)c3)c(CN[C@](C)(CO)C(=O)O)cc2Cl)cccc1-c1cccc(OCCCN2CCC(O)(CO)CC2)c1Cl [Example 2061, (R)-2-((5-chloro-4-((2′-chloro-3′-(3-(4-hydroxy-4-(hydroxymethyl)piperidin-1-yl)propoxy)-2-methyl-[1,1′-biphenyl]-3-yl)methoxy)-2-((5-cyanopyridin-3-yl)methoxy)benzyl)amino)-3-hydroxy-2-methylpropanoic Acid] | 0.21 to 10 | –
3 | CC(=O)NC1CCN(CCCOc2cccc(-c3cccc(COc4cc(OCc5cncc(C#N)c5)c(CNC(CO)CO)cc4Cl)c3C)c2Cl)CC1 [Example 2062, N-(1-(3-((2-chloro-3′-((2-chloro-5-((5-cyanopyridin-3-yl)methoxy)-4-(((1,3-dihydroxypropan-2-yl)amino)methyl)phenoxy)methyl)-2′-methyl-[1,1′-biphenyl]-3-yl)oxy)propyl)piperidin-4-yl)acetamide] | 0.21 to 10 | –
4 | Cc1c(COc2cc(OCc3cncc(C#N)c3)c(CNC(CO)CO)cc2Cl)cccc1-c1cccc(OCCCN2CCC(O)(CO)CC2)c1Cl [Example 2063, 5-((4-chloro-5-((2′-chloro-3′-(3-(4-hydroxy-4-(hydroxymethyl)piperidin-1-yl)propoxy)-2-methyl-[1,1′-biphenyl]-3-yl)methoxy)-2-(((1,3-dihydroxypropan-2-yl)amino)methyl)phenoxy)methyl)nicotinonitrile] | 100 to 2000 | –
5 | CN(CCCOc1cccc(-c2cccc(COc3cc(OCc4cncc(C#N)c4)c(CN[C@](C)(CO)C(=O)O)cc3Cl)c2Cl)c1Cl)C[C@H](O)CO [Example 2064, (R)-2-((5-chloro-2-((5-cyanopyridin-3-yl)methoxy)-4-((2,2′-dichloro-3′-(3-(((S)-2,3-dihydroxypropyl)(methyl)amino)propoxy)-[1,1′-biphenyl]-3-yl)methoxy)benzyl)amino)-3-hydroxy-2-methylpropanoic Acid] | 0.21 to 10 | –
6 | C[C@](CO)(NCc1cc(Cl)c(OCc2cccc(-c3cccc(OCCCN4CCC(O)(CO)CC4)c3Cl)c2Cl)cc1OCc1cncc(C#N)c1)C(=O)O [Example 2065, (R)-2-((5-chloro-2-((5-cyanopyridin-3-yl)methoxy)-4-((2,2′-dichloro-3′-(3-(4-hydroxy-4-(hydroxymethyl)piperidin-1-yl)propoxy)-[1,1′-biphenyl]-3-yl)methoxy)benzyl)amino)-3-hydroxy-2-methylpropanoic Acid] | 0.21 to 10 | –
7 | CC(CO)(CO)NCc1cc(Cl)c(OCc2cccc(-c3cccc(OCCCN4CC[C@@H](O)C4)c3Cl)c2Cl)cc1OCc1cccc(Cl)c1 [Example 2066, (R)-2-((5-chloro-2-((3-chlorobenzyl)oxy)-4-((2,2′-dichloro-3′-(3-(3-hydroxypyrrolidin-1-yl)propoxy)-[1,1′-biphenyl]-3-yl)methoxy)benzyl)amino)-2-methylpropane-1,3-diol] | 0.21 to 10 | –
8 | Cc1c(COc2cc(OCc3cncc(C#N)c3)c(CNC(C)(C)CO)cc2Cl)cccc1-c1cccc(OCCCN2CC[C@@H](O)C2)c1Cl [Example 2067, (R)-5-((4-chloro-5-((2′-chloro-3′-(3-(3-hydroxypyrrolidin-1-yl)propoxy)-2-methyl-[1,1′-biphenyl]-3-yl)methoxy)-2-(((1-hydroxy-2-methylpropan-2-yl)amino)methyl)phenoxy)methyl)nicotinonitrile] | 0.21 to 10 | –
9 | Cc1c(COc2cc(OCc3cncc(C#N)c3)c(CN(C)CC(C)(C)O)cc2Cl)cccc1-c1cccc(OCCCN2CC[C@@H](O)C2)c1Cl [Example 2068, (R)-5-((4-chloro-5-((2′-chloro-3′-(3-(3-hydroxypyrrolidin-1-yl)propoxy)-2-methyl-[1,1′-biphenyl]-3-yl)methoxy)-2-(((2-hydroxy-2-methylpropyl)(methyl)amino)methyl)phenoxy)methyl)nicotinonitrile] | 0.21 to 10 | –
10 | CC(=O)N[C@H]1CCN(CCCOc2cccc(-c3cccc(COc4cc(OCc5cncc(C#N)c5)c(CNC(CO)CO)cc4Cl)c3C)c2Cl)C1 [Example 2069, (S)—N-(1-(3-((2-chloro-3′-((2-chloro-5-((5-cyanopyridin-3-yl)methoxy)-4-(((1,3-dihydroxypropan-2-yl)amino)methyl)phenoxy)methyl)-2′-methyl-[1,1′-biphenyl]-3-yl)oxy)propyl)pyrrolidin-3-yl)acetamide] | 0.21 to 10 | –
11 | CC(=O)N[C@H]1CCN(CCCOc2cccc(-c3cccc(COc4cc(OCc5cncc(C#N)c5)c(CN[C@](C)(CO)C(=O)O)cc4Cl)c3Cl)c2Cl)C1 [Example 2070, (R)-2-((4-((3′-(3-((S)-3-acetamidopyrrolidin-1-yl)propoxy)-2,2′-dichloro-[1,1′-biphenyl]-3-yl)methoxy)-5-chloro-2-((5-cyanopyridin-3-yl)methoxy)benzyl)amino)-3-hydroxy-2-methylpropanoic Acid] | 0.21 to 10 | –
12 | CC(=O)N[C@H]1CCN(CCCOc2cccc(-c3cccc(COc4cc(OCc5cncc(C#N)c5)c(CN[C@](C)(CO)C(=O)O)cc4Cl)c3C)c2Cl)C1 [Example 2071, (R)-2-((4-((3′-(3-((S)-3-acetamidopyrrolidin-1-yl)propoxy)-2′-chloro-2-methyl-[1,1′-biphenyl]-3-yl)methoxy)-5-chloro-2-((5-cyanopyridin-3-yl)methoxy)benzyl)amino)-3-hydroxy-2-methylpropanoic Acid] | 0.21 to 10 | –
13 | CCN(Cc1cc(Cl)c(OCc2cccc(-c3cccc(OCCCN4CC[C@@H](O)C4)c3Cl)c2C)cc1OCc1cncc(C#N)c1)[C@](C)(CO)C(=O)O [Example 2072, (R)-2-((5-chloro-4-((2′-chloro-3′-(3-((R)-3-hydroxypyrrolidin-1-yl)propoxy)-2-methyl-[1,1′-biphenyl]-3-yl)methoxy)-2-((5-cyanopyridin-3-yl)methoxy)benzyl)(ethyl)amino)-3-hydroxy-2-methylpropanoic Acid] | 0.21 to 10 | –
14 | CC(=O)NC1CCN(CCCOc2cccc(-c3cccc(COc4cc(OCc5cncc(C#N)c5)c(CN(CCC(F)(F)F)C(CO)CO)cc4Cl)c3C)c2Cl)CC1 [Example 2073, N-(1-(3-((2-chloro-3′-((2-chloro-5-((5-cyanopyridin-3-yl)methoxy)-4-(((1,3-dihydroxypropan-2-yl)(3,3,3-trifluoropropyl)amino)methyl)phenoxy)methyl)-2′-methyl-[1,1′-biphenyl]-3-yl)oxy)propyl)piperidin-4-yl)acetamide] | 0.21 to 10 | –
15 | Cc1c(COc2cc(OCc3cncc(C#N)c3)c(CN(CCC(F)(F)F)C(CO)CO)cc2Cl)cccc1-c1cccc(OCCCN2CCC(O)(CO)CC2)c1Cl [Example 2074, 5-((4-chloro-5-((2′-chloro-3′-(3-(4-hydroxy-4-(hydroxymethyl)piperidin-1-yl)propoxy)-2-methyl-[1,1′-biphenyl]-3-yl)methoxy)-2-(((1,3-dihydroxypropan-2-yl)(3,3,3-trifluoropropyl)amino)methyl)phenoxy)methyl)nicotinonitrile] | 0.21 to 10 | –
16 | CCN(CCCOc1cccc(-c2cccc(COc3cc(OCc4cncc(C#N)c4)c(CN(CC)C[C@H](O)CO)cc3Cl)c2C)c1Cl)C[C@H](O)CO [Example 2075, 5-((4-chloro-5-((2′-chloro-3′-(3-(((S)-2,3-dihydroxypropyl)(ethyl)amino)propoxy)-2-methyl-[1,1′-biphenyl]-3-yl)methoxy)-2-((((S)-2,3-dihydroxypropyl)(ethyl)amino)methyl)phenoxy)methyl)nicotinonitrile] | – | 5
17 | Cc1c(COc2cc(OCc3cncc(C#N)c3)c(CN(C)C(C)(CO)CO)cc2Cl)cccc1-c1cccc(OCCCN2CC[C@@H](O)C2)c1Cl [Example 2076, (R)-5-((4-chloro-5-((2′-chloro-3′-(3-(3-hydroxypyrrolidin-1-yl)propoxy)-2-methyl-[1,1′-biphenyl]-3-yl)methoxy)-2-(((1,3-dihydroxy-2-methylpropan-2-yl)(methyl)amino)methyl)phenoxy)methyl)nicotinonitrile] | 0.21 to 10 | –
18 | Cc1c(COc2cc(OCc3cncc(C#N)c3)c(CNC3(CO)CC3)cc2Cl)cccc1-c1cccc(OCCCN2CC[C@@H](O)C2)c1Cl [Example 2077, (R)-5-((4-chloro-5-((2′-chloro-3′-(3-(3-hydroxypyrrolidin-1-yl)propoxy)-2-methyl-[1,1′-biphenyl]-3-yl)methoxy)-2-(((1-(hydroxymethyl)cyclopropyl)amino)methyl)phenoxy)methyl)nicotinonitrile] | 0.21 to 10 | –
19 | C[C@](CO)(NCc1cc(Cl)c(OCc2cccc(-c3cccc(OCCCN4C[C@@H](O)[C@H](O)C4)c3Cl)c2Cl)cc1OCc1cncc(C#N)c1)C(=O)O [Example 2078, (R)-2-((5-chloro-2-((5-cyanopyridin-3-yl)methoxy)-4-((2,2′-dichloro-3′-(3-((3R,4R)-3,4-dihydroxypyrrolidin-1-yl)propoxy)-[1,1′-biphenyl]-3-yl)methoxy)benzyl)amino)-3-hydroxy-2-methylpropanoic Acid] | 0.21 to 10 | –
20 | Cc1c(COc2cc(OCc3cncc(C#N)c3)c(CNC(C)(CO)CO)cc2Cl)cccc1-c1cccc(OCC(CO)CO)c1Cl [Example 2079, 5-((4-chloro-5-((2′-chloro-3′-(3-hydroxy-2-(hydroxymethyl)propoxy)-2-methyl-[1,1′-biphenyl]-3-yl)methoxy)-2-(((1,3-dihydroxy-2-methylpropan-2-yl)amino)methyl)phenoxy)methyl)nicotinonitrile] | 0.21 to 10 | –
